Here are results for five molecules from patent US20210221822A1, “TRICYCLIC DERIVATIVES INHIBITOR, PREPARATION METHOD, AND APPLICATIONS THEREOF” (Jiangsu Hansoh Pharmaceutical Group Co., Ltd., priority 2018, published 2021).

Each structure is given as a SMILES string.

For one data set, the target named is T1, PI3Kα (Homo sapiens, UniProt P42336).
T1 construct: purchased Promega V1721
Nature of the data set: ADP-Glo lipid kinase assay, PI3Kα kinase activity. To be noted: for IC50: ADP-Glo, 0.1 nM enzyme, 120 min, 50 μM ATP. Format: biochemical. How it is done:
(§1) Experimental method: Promega's ADP-Glo lipid kinase assay method (Promega #V9102) was applied in this experiment. Lipid kinase PI3Kα/β/γ/δ catalyzed the generation of ADP from ATP in the presence of the substrate PIP2: 3PS and ATP. The lipid kinase activity was characterized by measuring the ADP content in the reaction, and the half inhibitory concentration IC50 of the compound on inhibiting PI3Kα/β/γ/δ kinase activity was thus obtained.
(§2) The kinase reaction was carried out in a white 384-well plate (Perkin Elmer #6007299). 2 μL of the compound solution of different concentrations diluted with ddH2O containing 1% DMSO was added to each well. 2 μL of ddH2O containing 1% DMSO was added to the positive control well. 2 μL of 0.1-2 nM PI3K kinase solution diluted with 5× kinase buffer (HEPES 250 mM, MgCl2 15 mM, NaCl 250 mM, BSA 0.05%) was added to each well. 2 μL of 5× kinase buffer was added to the negative control well. 4 μL of 50 μM substrate PIP2: 3PS (Promega #V1701) formulated with 10× Dilution buffer and ddH2O was added to all wells. Finally, 2 μL of […] ATP solution diluted with water was added to start the reaction. After the reaction was carried out at room temperature for 90 to 120 minutes, 10 μL of ADP-Glo Reagent (containing 10 mM MgCl2) was added to each well, and reacted at room temperature for 60 minutes to remove excess ATP in the reaction. 20 μL of Kinase Detection Reagent was added to each well, and reacted at room temperature in the dark for 20 minutes. The chemiluminescence value was measured by the BioTek Synergy H1 microplate reader.
(§3) The percentage inhibition data of the compound-treated well was calculated through the positive control well (DMSO control well) and negative control well (no kinase added) on the plate {% inhibition rate=100−[(test compound value−negative control value)]/(positive control value−negative control value)×100}. The IC50 value was calculated by fitting the data of different concentrations and corresponding percentage inhibition rates to a four-parameter nonlinear logic formula with GraphPad prism.
In general terms: ADP-Glo turns the ADP formed in a reaction into a luminescent signal.

A further data set deals with T2, PI3Kβ (Homo sapiens, UniProt P42338).
T2 construct: purchased Carna 11-102
Nature of the data set: ADP-Glo lipid kinase assay, PI3Kβ kinase activity. The class given is biochemical. To be noted: 0.4 nM enzyme, 90 min, 100 μM ATP. On the procedure: as §1, §2, §3

The target in another data set is T3, PI3Kγ (Homo sapiens, UniProt P48736).
T3 construct: purchased Thermofisher PV4786
Briefly: ADP-Glo lipid kinase assay, PI3Kγ kinase activity. To be noted: 0.4 nM enzyme, 120 min, 50 μM ATP. Format: biochemical. On the procedure: as §1, §2, §3

In the next data set the target is T4, PI3Kδ (Homo sapiens, UniProt O00329).
T4 construct: purchased Carna 11-103
Briefly: ADP-Glo lipid kinase assay, PI3Kδ kinase activity. The class given is biochemical. To be noted: 0.1 nM enzyme, 90 min, 100 μM ATP. On the procedure:
as §1, §2, §3

Data set [1] is described as follows: Pharmacokinetic (PK) assay in mice. Format: in vivo. To be noted: male, Balb/c, mouse, plasma, po, single intragastric 5 mg/kg; for AUC(0-t): read-out: Area under curve AUC0-t; for AUC(0-inf): read-out: Area under curve AUC0-∞; for half-life: read-out: Half-life t1/2(h) (converted); for MRT: read-out: Mean residence time MRT; for Tmax: read-out: Peak time tmax; for Cmax: read-out: Plasma concentration Cmax. On the procedure: The pharmacokinetic assay of the preferred compounds of the examples of the present invention in mice was carried out in Balb/c male mice (Shanghai Jiesijie Laboratory Animal Co., LTD). • Administration mode: single intragastric administration. • Administration dose: 5 mg/10 ml/kg (body weight). • Formulation: the compound was dissolved in 0.5% CMC-Na by ultrasound to obtain a clear solution or homogeneous suspension. • Sampling points: 0.5, 1, 2, 4, 6, 8 and 24 hours after administration. • Sample process: • 1) 0.1 mL of blood was taken from the orbit, placed in a K2-EDTA tube, and centrifuged for 5 to 20 minutes at room temperature at 1000 to 3000×g to separate the plasma, which was then stored at −80° C. • 2) 160 uL of acetonitrile was added to 40 uL of plasma sample for precipitation, and then the mixture was centrifuged for 5 to 20 minutes at 500 to 2000×g. • 3) 100 uL of processed supernatant was taken and analyzed by LC/MS/MS assay to determine the concentration of the test compound. • LC-MS/MS assay: • Liquid chromatography condition: Shimadzu LC-20AD pump • Mass spectrometry condition: AB Sciex API 4000 mass spectrometer • Chromatographic column: phenomenex Gemiu 5 μm C18 50×4.6 mm • Mobile phase: solution A was 0.1% aqueous formic acid solution, and solution B was acetonitrile • Flow rate: 0.8 mL/min • Elution time: 0-4 minutes gradient elution • Pharmacokinetics: […]
The main parameters were calculated using WinNonlin 6.1.

T2 sequence (P42338 whole entry): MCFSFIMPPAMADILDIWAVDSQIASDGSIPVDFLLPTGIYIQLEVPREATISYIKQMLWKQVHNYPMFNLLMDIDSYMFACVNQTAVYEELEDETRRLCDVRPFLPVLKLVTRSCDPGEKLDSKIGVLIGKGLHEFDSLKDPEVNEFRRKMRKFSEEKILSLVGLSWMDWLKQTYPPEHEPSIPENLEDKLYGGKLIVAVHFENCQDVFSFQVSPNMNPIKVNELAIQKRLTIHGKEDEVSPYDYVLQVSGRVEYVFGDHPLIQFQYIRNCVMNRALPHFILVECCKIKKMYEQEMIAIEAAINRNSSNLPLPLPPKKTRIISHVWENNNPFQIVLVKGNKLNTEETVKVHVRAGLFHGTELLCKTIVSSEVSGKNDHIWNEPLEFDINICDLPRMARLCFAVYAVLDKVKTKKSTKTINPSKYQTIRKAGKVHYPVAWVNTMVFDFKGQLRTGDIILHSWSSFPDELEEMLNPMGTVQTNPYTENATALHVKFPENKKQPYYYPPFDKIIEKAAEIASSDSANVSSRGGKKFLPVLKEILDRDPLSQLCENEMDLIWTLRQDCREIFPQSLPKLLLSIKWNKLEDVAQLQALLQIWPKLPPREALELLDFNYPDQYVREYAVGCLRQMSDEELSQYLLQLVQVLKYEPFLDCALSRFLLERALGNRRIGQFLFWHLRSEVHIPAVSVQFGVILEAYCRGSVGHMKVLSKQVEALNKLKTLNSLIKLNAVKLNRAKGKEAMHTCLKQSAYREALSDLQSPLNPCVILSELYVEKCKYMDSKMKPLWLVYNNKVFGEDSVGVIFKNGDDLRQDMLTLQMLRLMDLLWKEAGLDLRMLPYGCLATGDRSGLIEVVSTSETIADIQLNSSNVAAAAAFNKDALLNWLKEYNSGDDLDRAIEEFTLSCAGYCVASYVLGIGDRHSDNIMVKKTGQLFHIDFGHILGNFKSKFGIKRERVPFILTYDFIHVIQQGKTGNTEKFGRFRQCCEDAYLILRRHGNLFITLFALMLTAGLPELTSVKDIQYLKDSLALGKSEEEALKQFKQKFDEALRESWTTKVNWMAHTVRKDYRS
T2 sequence (P27986 whole entry partner): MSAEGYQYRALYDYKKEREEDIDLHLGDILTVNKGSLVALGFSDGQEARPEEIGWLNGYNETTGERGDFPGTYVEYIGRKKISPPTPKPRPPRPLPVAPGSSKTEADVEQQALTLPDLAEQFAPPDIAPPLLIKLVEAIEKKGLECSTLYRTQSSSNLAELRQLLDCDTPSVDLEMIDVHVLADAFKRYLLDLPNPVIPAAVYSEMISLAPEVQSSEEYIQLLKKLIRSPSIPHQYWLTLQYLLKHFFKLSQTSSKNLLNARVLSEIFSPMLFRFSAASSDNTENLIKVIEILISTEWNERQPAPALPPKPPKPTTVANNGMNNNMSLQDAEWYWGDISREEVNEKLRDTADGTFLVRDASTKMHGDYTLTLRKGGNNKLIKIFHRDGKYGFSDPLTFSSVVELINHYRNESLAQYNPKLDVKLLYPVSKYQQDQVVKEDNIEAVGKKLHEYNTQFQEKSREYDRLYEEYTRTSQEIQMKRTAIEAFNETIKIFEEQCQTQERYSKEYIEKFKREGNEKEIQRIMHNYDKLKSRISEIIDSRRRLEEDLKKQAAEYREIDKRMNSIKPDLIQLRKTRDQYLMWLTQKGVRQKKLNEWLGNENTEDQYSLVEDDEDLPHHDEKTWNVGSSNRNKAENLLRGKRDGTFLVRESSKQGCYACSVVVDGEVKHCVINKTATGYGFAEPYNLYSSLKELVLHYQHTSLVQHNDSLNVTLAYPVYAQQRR
T3 sequence (P48736 whole entry): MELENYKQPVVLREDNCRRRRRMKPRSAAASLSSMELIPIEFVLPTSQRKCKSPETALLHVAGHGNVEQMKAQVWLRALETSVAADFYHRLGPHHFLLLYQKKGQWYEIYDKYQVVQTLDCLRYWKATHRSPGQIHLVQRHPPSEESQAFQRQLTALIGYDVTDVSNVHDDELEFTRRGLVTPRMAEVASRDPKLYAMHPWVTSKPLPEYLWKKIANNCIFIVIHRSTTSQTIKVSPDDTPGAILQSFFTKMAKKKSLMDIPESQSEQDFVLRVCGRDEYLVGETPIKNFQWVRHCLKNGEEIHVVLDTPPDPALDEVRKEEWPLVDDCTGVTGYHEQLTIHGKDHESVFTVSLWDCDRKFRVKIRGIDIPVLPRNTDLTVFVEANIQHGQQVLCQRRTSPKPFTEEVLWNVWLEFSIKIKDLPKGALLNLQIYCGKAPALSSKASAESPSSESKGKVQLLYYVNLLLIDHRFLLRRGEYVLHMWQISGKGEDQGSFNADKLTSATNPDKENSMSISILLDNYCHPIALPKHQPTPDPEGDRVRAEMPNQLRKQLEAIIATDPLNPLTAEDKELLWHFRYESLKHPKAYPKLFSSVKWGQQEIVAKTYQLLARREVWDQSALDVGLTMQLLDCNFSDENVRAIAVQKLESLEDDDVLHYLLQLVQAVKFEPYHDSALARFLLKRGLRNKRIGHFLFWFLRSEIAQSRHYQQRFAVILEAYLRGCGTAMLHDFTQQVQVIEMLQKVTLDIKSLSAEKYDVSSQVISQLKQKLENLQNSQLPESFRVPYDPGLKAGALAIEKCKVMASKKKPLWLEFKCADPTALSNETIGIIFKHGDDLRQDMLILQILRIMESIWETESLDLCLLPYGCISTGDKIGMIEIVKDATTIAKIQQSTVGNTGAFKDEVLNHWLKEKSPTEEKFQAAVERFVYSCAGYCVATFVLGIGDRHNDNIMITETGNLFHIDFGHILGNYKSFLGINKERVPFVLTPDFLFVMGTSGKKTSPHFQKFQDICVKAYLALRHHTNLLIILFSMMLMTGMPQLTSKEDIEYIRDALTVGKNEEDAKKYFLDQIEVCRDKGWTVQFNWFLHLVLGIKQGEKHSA
T4 sequence (O00329 whole entry): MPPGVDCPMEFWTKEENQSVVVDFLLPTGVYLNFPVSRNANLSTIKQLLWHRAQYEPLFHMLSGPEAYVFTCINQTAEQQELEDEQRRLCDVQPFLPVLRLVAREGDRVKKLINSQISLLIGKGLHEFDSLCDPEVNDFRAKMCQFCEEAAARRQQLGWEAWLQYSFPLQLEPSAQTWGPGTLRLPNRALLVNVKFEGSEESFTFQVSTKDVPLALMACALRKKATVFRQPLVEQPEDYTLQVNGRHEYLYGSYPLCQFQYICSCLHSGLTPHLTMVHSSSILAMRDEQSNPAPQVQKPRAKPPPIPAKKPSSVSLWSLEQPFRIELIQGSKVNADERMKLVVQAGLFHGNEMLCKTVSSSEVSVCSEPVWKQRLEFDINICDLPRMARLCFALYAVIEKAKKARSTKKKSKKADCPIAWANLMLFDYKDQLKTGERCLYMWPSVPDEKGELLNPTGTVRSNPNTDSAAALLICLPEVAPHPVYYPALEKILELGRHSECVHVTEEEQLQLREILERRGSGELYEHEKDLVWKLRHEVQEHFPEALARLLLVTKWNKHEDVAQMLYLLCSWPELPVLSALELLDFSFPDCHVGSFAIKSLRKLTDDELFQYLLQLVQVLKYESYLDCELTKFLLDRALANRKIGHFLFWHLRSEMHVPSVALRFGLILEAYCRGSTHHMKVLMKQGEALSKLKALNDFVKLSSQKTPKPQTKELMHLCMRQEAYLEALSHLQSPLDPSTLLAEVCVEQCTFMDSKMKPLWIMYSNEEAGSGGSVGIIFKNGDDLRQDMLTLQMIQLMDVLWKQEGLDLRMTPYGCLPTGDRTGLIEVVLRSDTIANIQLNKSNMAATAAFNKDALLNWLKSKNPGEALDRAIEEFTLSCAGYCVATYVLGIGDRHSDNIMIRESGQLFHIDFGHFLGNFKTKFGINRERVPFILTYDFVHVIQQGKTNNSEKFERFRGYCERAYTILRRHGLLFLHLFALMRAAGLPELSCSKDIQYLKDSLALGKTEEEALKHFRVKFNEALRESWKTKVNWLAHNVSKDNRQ
T4 sequence (P27986 whole entry partner): as the sequence (P27986 whole entry partner) above
T1 sequence (P42336 whole entry): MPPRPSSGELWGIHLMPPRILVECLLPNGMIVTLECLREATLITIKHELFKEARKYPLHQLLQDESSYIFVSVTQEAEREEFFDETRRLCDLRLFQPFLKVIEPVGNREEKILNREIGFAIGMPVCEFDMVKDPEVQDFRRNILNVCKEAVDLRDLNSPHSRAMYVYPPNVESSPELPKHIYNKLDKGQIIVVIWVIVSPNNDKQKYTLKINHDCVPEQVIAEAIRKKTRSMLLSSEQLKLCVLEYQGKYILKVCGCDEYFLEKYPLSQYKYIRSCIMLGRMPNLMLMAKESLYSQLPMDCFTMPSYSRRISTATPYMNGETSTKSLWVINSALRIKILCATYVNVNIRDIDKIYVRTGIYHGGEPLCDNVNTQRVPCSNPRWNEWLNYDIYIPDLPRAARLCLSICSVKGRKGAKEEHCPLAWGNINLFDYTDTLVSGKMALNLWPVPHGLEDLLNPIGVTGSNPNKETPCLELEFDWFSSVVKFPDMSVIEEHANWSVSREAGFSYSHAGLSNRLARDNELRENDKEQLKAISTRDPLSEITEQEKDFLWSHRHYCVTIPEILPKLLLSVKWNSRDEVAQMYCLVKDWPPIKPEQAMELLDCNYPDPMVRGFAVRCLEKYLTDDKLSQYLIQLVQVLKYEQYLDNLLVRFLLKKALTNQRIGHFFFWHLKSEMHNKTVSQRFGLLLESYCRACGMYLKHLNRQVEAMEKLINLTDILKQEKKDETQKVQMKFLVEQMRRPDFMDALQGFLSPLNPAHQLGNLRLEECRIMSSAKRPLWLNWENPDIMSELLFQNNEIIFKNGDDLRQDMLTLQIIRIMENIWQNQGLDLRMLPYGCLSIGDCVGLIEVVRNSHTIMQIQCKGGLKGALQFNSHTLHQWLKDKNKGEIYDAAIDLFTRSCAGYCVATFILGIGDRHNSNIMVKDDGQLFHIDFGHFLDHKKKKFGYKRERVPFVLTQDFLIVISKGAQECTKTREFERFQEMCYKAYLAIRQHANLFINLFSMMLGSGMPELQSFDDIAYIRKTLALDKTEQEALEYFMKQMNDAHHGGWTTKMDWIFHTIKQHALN
T1 sequence (P27986 whole entry partner): as the sequence (P27986 whole entry partner) above

The term IC50 denotes the concentration at which inhibition is half-maximal. In general, MRT refers to the average time that molecules of a dose stay in the body. A word on the Tmax: it is the time from dosing to the highest level. As for `NC(=O)[C@@H]1CCCN1c1ccc2c(c1)OCCn1cc(N3C(=O)SC[C@H]3C(F)F)nc1-2` [Example 111, (S)-1-(2-((R)-4-(difluoromethyl)-2-oxothiazolidin-3-yl)-5,6-dihydrobenzo[f]imidazo[1,2-d][1,4]oxazepin-9-yl)pyrrolidine-2-carboxamide], the 50% inhibitory concentration (IC50) at PI3Kα was determined as 2.9 nM. Besides, at PI3Kβ, the IC50 stood at 1230 nM. The IC50 on PI3Kγ came out at 736 nM. For the same molecule, the IC50 on PI3Kδ worked out at 125 nM. For the same molecule, in data set [1], the AUC(0-t) turned out to be 1740 ng·h/mL, the AUC(0-inf) worked out at 1740 ng·h/mL, the half-life was 2.8 h and the MRT was determined as 3.9 h. Besides, in data set [1], the Tmax worked out at 0.5 h and the Cmax stood at 466 ng/mL.

Take `C[C@H](Nc1ccc2c(c1F)OCCn1cc(N3C(=O)SC[C@H]3C(F)F)nc1-2)C(N)=O` [Example 108, (S)-2-((2-((R)-4-(difluoromethyl)-2-oxothiazolidin-3-yl)-8-fluoro-5,6-dihydrobenzo[f]imidazo[1,2-d][1,4]oxazepin-9-yl)amino)propanamide]: the IC50 at PI3Kα worked out at 2.4 nM. The 50% inhibitory concentration (IC50) at PI3Kβ worked out at 472 nM. The IC50 on PI3Kγ amounted to 247 nM. The IC50 at PI3Kδ turned out to be 194 nM. For the same molecule, in data set [1], the AUC(0-t) worked out at 4240 ng·h/mL, the AUC(0-inf) was determined as 4240 ng·h/mL, the half-life is 2 h and the MRT was found to be 3.4 h. In addition, in data set [1], the Tmax amounted to 0.5 h and the Cmax amounted to 1230 ng/mL.

As for `COC[C@H](Nc1ccc2c(c1)OCCn1cc(N3C(=O)SC[C@H]3C(F)F)nc1-2)C(N)=O` [Example 110, (S)-2-((2-((R)-4-(difluoromethyl)-2-oxothiazolidin-3-yl)-5,6-dihydrobenzo[f]imidazo[1,2-d][1,4]oxazepin-9-yl)amino)-3-methoxypropanamide], the IC50 at PI3Kα stood at 1 nM. In addition, the IC50 on PI3Kβ was determined as 754 nM. Further, the IC50 at PI3Kγ was determined as 376 nM. The concentration for half-maximal inhibition (IC50) at PI3Kδ was 139 nM. Moreover, in data set [1], the AUC(0-t) was determined as 13700 ng·h/mL, the AUC(0-inf) was determined as 13700 ng·h/mL, the half-life was 2.8 h and the MRT came out at 3.7 h. Moreover, in data set [1], the Tmax stood at 0.5 h and the Cmax worked out at 4020 ng/mL.

Take `C[C@H](Nc1ccc2c(c1)OCCn1cc(N3C(=O)O[C@H](C)[C@H]3C(F)F)nc1-2)C(N)=O` [Example 54, (S)-2-((2-((4S,5R)-4-(difluoromethyl)-5-methyl-2-oxooxazolidin-3-yl)-5,6-dihydrobenzo[f]imidazo[1,2-d][1,4]oxazepin-9-yl)amino)propanamide]: the IC50 at PI3Kα worked out at 1.2 nM. Also, on PI3Kβ, the IC50 came to 1800 nM. For the same molecule, the IC50 on PI3Kγ turned out to be 481 nM. The 50% inhibitory concentration (IC50) on PI3Kδ is 336 nM. In data set [1], the AUC(0-t) is 1560 ng·h/mL, the AUC(0-inf) is 1620 ng·h/mL, the half-life was 1.8 h and the MRT stood at 2 h. For the same molecule, in data set [1], the Tmax is 1 h and the Cmax was found to be 832 ng/mL.

Take `C[C@H](Nc1ccc2c(c1)OCCn1cc(N3C(=O)N(C)C[C@H]3C(F)F)nc1-2)C(N)=O` [Example 53, (S)-2-((2-((S)-5-(difluoromethyl)-3-methyl-2-oxoimidazolidin-1-yl)-5,6-dihydrobenzo[f]imidazo[1,2-d][1,4]oxazepin-9-yl)amino)propanamide]: at PI3Kα, the IC50 stood at 5 nM. For the same molecule, the “Selectivity of PI3Kα vs PI3Kγ” value on PI3Kα (ratio of IC50 PI3Kγ to IC50 PI3Kα) was 80. The IC50 at PI3Kβ came out at 6190 nM. Also, the IC50 on PI3Kγ was determined as 402 nM. The half-maximal inhibitory concentration (IC50) on PI3Kδ was determined as 373 nM. Also, in data set [1], the AUC(0-t) amounted to 1280 ng·h/mL, the AUC(0-inf) turned out to be 1290 ng·h/mL, the half-life is 0.8 h and the mean residence time MRT came to 1.2 h. In data set [1], the time to peak (Tmax) was found to be 0.5 h and the Cmax was 1090 ng/mL.
